According to patent publication US12383579B2, “Materials and methods of using an inhibitor of plasminogen activation to treat anastomotic leak” (THE UNIVERSITY OF CHICAGO, priority 2018, dated 2025):
“And” between values parts separate entries of the source, which are not always exact repeats. Equal values may be shown once. “Also recorded” adds a separate entry of the source.

Key:
[1] = system: type IV collagen degradation by collagenolytic E. faecalis E44; assay: Collagen degradation by E. faecalis E44 with PLG, uPA and MMP9; assay type: biochemical, Enterococcus faecalis; details: fluorescently tagged type IV collagen
Method: Collagen degradation. Assays were performed per the manufacturer's instructions as previously described with slight modifications (51′). Bacteria were grown overnight in TY. Optical density was normalized to 0.1 through dilution. […] Total reaction volume was 200 L. The incubation proceeded at 37° C. for 5 hours to allow for bacterial attachment to collagen and PLG binding. uPA was added and the incubation proceeded for an additional hour. Change in fluorescence over time at 480/520 nm was determined kinetically over the initial 30 minutes of the reaction.
The role of activated plasminogen (PLG) in anastomotic leak. […] Co-incubation of E44 with murine macrophages ([…]) was performed for studies involving conditioned media. Twenty-week-old male C57BL/6 mice underwent the validated model of E44-induced AL that includes preoperative antibiotics to defaunate the colon, surgical transection and anastomosis of the colon and introduction of E44 in 10% glycerol to the surgical site via rectal enema on postoperative day 1. […] Anastomotic healing was assessed blindly using a validated anastomotic healing score (AHS): 0=uncomplicated healing, 1=flimsy adhesions, 2=dense adhesions, 3=abscess, and 4=gross anastomotic disruption. AL was defined as AHS 3 or above.

[2] = molecular target: PLG with uPA and pro-MMP9 (Homo sapiens, UniProt P00747); assay: Collagen/gelatin degradation by PLG, uPA and pro-MMP9 in a sterile system; assay type: biochemical
Chain of PLG with uPA and pro-MMP9 (P00747 20-810 limits assumed): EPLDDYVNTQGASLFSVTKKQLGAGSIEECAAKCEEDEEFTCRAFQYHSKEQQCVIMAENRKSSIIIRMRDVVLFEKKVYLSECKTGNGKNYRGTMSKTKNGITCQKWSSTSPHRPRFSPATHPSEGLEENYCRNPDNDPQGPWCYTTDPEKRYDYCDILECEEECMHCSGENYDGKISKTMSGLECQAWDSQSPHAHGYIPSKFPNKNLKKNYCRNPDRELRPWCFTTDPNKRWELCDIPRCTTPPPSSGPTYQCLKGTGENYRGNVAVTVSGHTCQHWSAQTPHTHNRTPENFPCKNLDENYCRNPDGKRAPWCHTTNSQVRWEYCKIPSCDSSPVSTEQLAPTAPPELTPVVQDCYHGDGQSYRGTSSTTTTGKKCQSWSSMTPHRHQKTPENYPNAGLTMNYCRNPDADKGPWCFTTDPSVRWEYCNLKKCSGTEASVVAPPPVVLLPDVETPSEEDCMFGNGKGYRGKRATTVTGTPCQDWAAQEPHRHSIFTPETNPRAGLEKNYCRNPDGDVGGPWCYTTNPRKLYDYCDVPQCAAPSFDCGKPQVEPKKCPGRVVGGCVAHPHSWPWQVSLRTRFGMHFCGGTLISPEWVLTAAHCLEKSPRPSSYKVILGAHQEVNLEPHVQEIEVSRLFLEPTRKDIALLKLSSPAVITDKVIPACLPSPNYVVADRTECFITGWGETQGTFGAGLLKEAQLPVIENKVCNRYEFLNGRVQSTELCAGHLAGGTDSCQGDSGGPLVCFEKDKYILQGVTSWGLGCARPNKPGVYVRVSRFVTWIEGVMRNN
Method: Collagen degradation. Assays were performed per the manufacturer's instructions as previously described with slight modifications (51′). Bacteria were grown overnight in TY. Optical density was normalized to 0.1 through dilution. Bacteria were then incubated with fluorescein-labeled type I collagen, type IV collagen, or gelatin according to the manufacturer's instructions (ThermoFisher), human PLG at 250 nM and TXA. Total reaction volume was 200 L. The incubation proceeded at 37° C. for 5 hours to allow for bacterial attachment to collagen and PLG binding. uPA was added and the incubation proceeded for an additional hour. Change in fluorescence over time at 480/520 nm was determined kinetically over the initial 30 minutes of the reaction.

E. faecalis = E. faecalis growth (OD600 over four hours); assay type: cell-based, Enterococcus faecalis; details: TXA added to culture medium
Source text: FIG. 44. […] Figures are representative of three separate experiments, each run in triplicate. Error bars indicate means±SD.

[3] = system: polymicrobial communities cultured from the postoperative mouse colon; assay: Plasmin activity assay of polymicrobial communities from postoperative mouse colon; assay type: biochemical; details: 10 mM TXA, exogenous PLG and uPA
Method: Polymicrobial communities collected from homogenized tissue and luminal contents were cultured aerobically in nonspecific media and underwent plasmin activity assays in the presence of human PLG and uPA. […] (*p<0.05, ANCOVA). Error bars indicate means±SD. All data are representative of three separate experiments, each run in triplicate.
Plasminogen/uPA activity. Plasmin activity assays were performed as previously described with minor modifications, and fluorescence data was analyzed per the manufacturer's instructions (50′). Incubation times were optimized for bacteria at low optical density to limit internal filter effects in fluorescence-based assays. Bacteria (when included) were grown overnight in TY media. […] A final concentration of 6 M fluorogenic substrate specific for plasmin (H-D-Val-Leu-Lys-AFC, AnaSpec) was added immediately prior to a kinetic fluorescent read with excitation wavelength 380 nm and emission wavelength 500 nm. Reads were conducted every 15 to 30 seconds over the course of 30 minutes. […] When assays were performed in human plasma, fluorescence was read for 120 minutes total.
Plasmin activity assays were measured in polymicrobial communities cultured aerobically from homogenized luminal contents or tissue following anastomotic surgery without antibiotics and without introduction of a leak-inducing pathogen (e.g., E. faecalis, P. aeruginosa, S. marcescens). […]

[4] = system: P. aeruginosa-induced anastomotic leak; assay: Mouse model of P. aeruginosa-induced anastomotic leak; assay type: in vivo, mice
Method: Mouse model of AL. The experiments disclosed herein used the validated model of pathogen-mediated AL in mice (8′). Ten- to 12-week-old C57BL/6 mice (Charles River) were provided standard chow and tap water ad libidum at all times. When indicated, mice received oral clindamycin (100 mg/kg gavage) and subcutaneous cefoxitin (40 mg/kg) the day prior to, and the day of, surgery. Mice underwent general anesthesia with intraperitoneal ketamine and xylocaine and laparotomy followed by transection of the colon at the colo-rectal junction followed by a primary anastomosis created with interrupted 8-0 prolene suture prior to abdominal closure with 4-0 vicryl suture in two layers. Rectal enemas containing pathogen, either E. faecalis or P. aeruginosa at an OD600 of 0.1 in 10% glycerol, were administered in 100 L enemas. E. faecalis was introduced on POD 1, 2, and 3, while P. aeruginosa was introduced only on POD 1. […] Rectal delivery with a gavage needle ensured local administration of pathogen and study drugs to the surgical site. Rules for stopping the experiment were enacted if mice appeared moribund or in any distress whereby they were sacrificed immediately. There were three deaths prior to planned sacrifice, all determined secondary to feculent peritonitis due to AL. Both the surgeon and the investigator performing analysis of healing were blind to the treatment group. […]

[5] = molecular target: FITC-PLG at the anastomosis (Homo sapiens, UniProt P00747); assay: In vivo deposition of FITC-PLG at surgical anastomoses; design: species or system mice; details: TXA enema one hour prior to sacrifice, 48 and 72 hours post-operative
Chain of FITC-PLG at the anastomosis (P00747 20-810 limits assumed): as above
Method: Mice underwent anastomosis without exposure to antibiotics or exogenous pathogen followed by intraperitoneal injection with FITC-PLG and either TXA or vehicle control enema one hour prior to sacrifice. Three animals per treatment group were sacrificed at various time points. […] Either TXA or water vehicle enema was administered along with systemic FITC-PLG injection one hour prior to sacrifice. […] Total FITC-PLG fluorescent signal was quantified in all mice as integrated density/area. […] A segment of anastomotic tissue collected from a mouse that received no enemas at 24 hours post-operative was observed. FITC-PLG fluorescence intensity is spatially quantified across the length of the tissue.
Mean FITC staining intensity was quantified as integrated density/area at the anastomotic sites of three mice per treatment group at the 48- and 72-hour time points.

[6] = system: E. faecalis V583 and FITC-PLG at the anastomotic site; assay: Co-localization of E. faecalis and PLG at the anastomotic site; assay type: in vivo, mice; details: TXA enema POD 1, 2, 3; POD3
Source text: Co-localization of E. faecalis and PLG: Mice underwent anastomotic surgery with postoperative introduction of E. faecalis V583. The mice received post-operative TXA or vehicle enemas as described herein. They received a systemic (intra-peritoneal) injection of 100 L 4 M FITC-labeled PLG one hour prior to sacrifice. Anastomotic tissue was collected in sterile fashion and cryosectioned. Slides were stained with 4′,6-diamidino-2-phenylindole (DAPI) for colonic mucosa. For visualization of microbial organisms, the inventors used probes designed by Miacom Diagnostics, which use a fluorescence in situ hybridization (FISH) beacon-based technology. An E. faecalis-specific probe was labeled with Alexa Fluor 647. Staining was performed overnight per the manufacturer's protocol. Confocal microscopy was performed on a Leica SP5 II AOBS tandem scanner spectral confocal system on a DMI6000 microscope and controlled by LASAF software (version 2.8.3). […] channels were collected at each location using sequential excitation (excitation: 405, 488, and 633; emission: 412-452, 495-537, and 654-755 nm pass bands) on either photomultiplier or HyD hybrid detectors. […]
Co-localization of E. faecalis and plasminogen at the anastomotic site. […] Mice undergoing E. faecalis-mediated anastomotic leak were administered FITC-labeled PLG (as observed by green fluorescence) systemically. […]

NC[C@H]1CC[C@H](C(=O)O)CC1 [TXA, tranexamic acid]
collagen degradation by E44 with PLG, uPA and MMP9 [1]: inhibited by TXA in a concentration-dependent fashion; also recorded: collagen degradation was inhibited | collagen degradation by E44 with PLG, uPA and MMP9 ([1]; listed as tranexamic acid): inhibited in a concentration-dependent manner | gelatin / type IV collagen degrading activity of PLG with uPA and pro-MMP9 [2]: inhibited in a concentration-dependent manner | bacterial growth (change in OD600 over four hours) (E. faecalis): no effect on bacterial growth | plasmin-activating activity of polymicrobial communities [3]: significantly inhibited | clinical / gross leak ([4]; 5 mice per group, enema POD 1, 2, 3): None of the mice | anastomotic healing score (AHS) ([4]; 100 μL enema POD 1, 2, 3 (50 mM TXA in water or PBS), POD 8, water 3.8±0.4): 1.6±0.5 and 1.6+/−0.6 | FITC-PLG positivity at the anastomosis (integrated density/area) [5]: significantly decreased the amount of FITC-PLG positivity at the anastomosis at both time points | co-localization of V583 with FITC-PLG at the anastomotic site [6]: effectively prevented co-localization | penetration of V583 into the colonic mucosa [6]: diminished penetration of V583 into the colonic mucosa
